Results on 24 compounds are retold here after US20260345574A1, “POTENT AND SELECTIVE IRREVERSIBLE INHIBITORS OF IRAK1” (Dana-Farber Cancer Institute, Inc., priority 2022, published 2026).

One assay concerns the target T1, IRAK4 (Homo sapiens, UniProt Q9NWZ3).
T1 sequence (Q9NWZ3 1-460): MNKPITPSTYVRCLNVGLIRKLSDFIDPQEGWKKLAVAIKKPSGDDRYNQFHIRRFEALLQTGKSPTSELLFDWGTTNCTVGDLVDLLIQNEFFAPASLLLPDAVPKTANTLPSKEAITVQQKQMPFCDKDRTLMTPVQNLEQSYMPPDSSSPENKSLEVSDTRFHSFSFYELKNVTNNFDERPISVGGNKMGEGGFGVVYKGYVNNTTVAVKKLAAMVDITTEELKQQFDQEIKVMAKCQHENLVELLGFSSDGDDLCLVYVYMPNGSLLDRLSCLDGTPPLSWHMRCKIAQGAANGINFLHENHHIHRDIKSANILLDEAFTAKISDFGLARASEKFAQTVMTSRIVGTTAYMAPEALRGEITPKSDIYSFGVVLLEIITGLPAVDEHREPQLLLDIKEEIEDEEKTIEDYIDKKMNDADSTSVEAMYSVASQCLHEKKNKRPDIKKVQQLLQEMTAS
In words: Z'-LYTE assay (ThermoFisher) against IRAK4. The following applies: Ser/Thr 07 substrate, 60 minutes at room temperature. The class given is biochemical. As to the method: To measure the IC50 values of compounds herein against IRAK4, a Z′-LYTE assay (ThermoFisher) was used. Briefly, 2.5 μL of different concentrations of the compounds in 1% DMSO were added to 2.4 μL kinase buffer (50 mM HEPES pH 7.5, 0.01% BRIJ-35, 10 mM MgCl2, 1 mM EGTA) in each well of a 384-well plate (Corning Cat. #3676). 5 μL of 2× IRAK4/Ser/Thr 07 mixture (prepared in 50 mM HEPES pH 7.5, 0.01% BRIJ-35, 10 mM MnCl2, 2 mM DTT, and 0.02% NaN3) and 2.5 μL of 4× ATP solution (4× ATP, 50 mM HEPES, pH 7.5, 0.01% BRIJ-35, 10 mM MgCl2, 1 mM EGTA) were added to each well. The plate was shaken for 30 seconds, and then incubated at room temperature for 60 minutes. 5 μL of a 1:100000 dilution of Development Reagent A was added to each well. The plate was shaken for 30 seconds and incubated for 60 minutes at room temperature. The plate was subsequently read on a fluorescence plate reader, and the emissions ratio was calculated to determine the ratio of Ser/Thr 07 phosphorylated by the reaction. Emissions Ratio=Coumarin Emission (443 nm)/Flourescein Emission (520 nm).

The target of another assay is IRAK1 (Homo sapiens, UniProt P51617). Put plainly: Adapta Universal Kinase Assay (ThermoFisher) against IRAK1. The class given is biochemical. The following applies: Histone H3 (1-20) peptide substrate, 60 minutes at room temperature. As to the method:
To measure the IC50 values of the compounds herein against IRAK1, the Adapta Universal Kinase Assay (ThermoFisher) was used. Briefly, 100 nL of different concentrations of the compounds in 100% DMSO were added to each well of a 384-well plate (Corning Cat. #4512). 2.4 μL of 30 mM HEPES, 2.5 μL of 4× ATP solution (in water), and 5 μL of 2× IRAK1/Histone H3 (1-20) peptide mixture (prepared in 50 mM HEPES pH 7.5, 0.01% BRIJ-35, 10 mM MgCl2, 1 mM EGTA) were added to each well. The plate was shaken for 30 seconds and centrifuged for 1 minute at 1000×g. The plate was then incubated at room temperature for 60 minutes. 5 μL of Detection Mix was added to each well. The plate was shaken for 30 seconds and centrifuged for 1 minute at 1000×g. The plate was then incubated at room temperature for 60 minutes. The plate was subsequently read on a fluorescence plate reader, and the emissions ratio was calculated to determine the ratio of ATP to ADP. Emissions Ratio=AF647 Emission (665 nm)/Europium Emission (615 nm).

IRAK1, sequence (P51617 whole entry): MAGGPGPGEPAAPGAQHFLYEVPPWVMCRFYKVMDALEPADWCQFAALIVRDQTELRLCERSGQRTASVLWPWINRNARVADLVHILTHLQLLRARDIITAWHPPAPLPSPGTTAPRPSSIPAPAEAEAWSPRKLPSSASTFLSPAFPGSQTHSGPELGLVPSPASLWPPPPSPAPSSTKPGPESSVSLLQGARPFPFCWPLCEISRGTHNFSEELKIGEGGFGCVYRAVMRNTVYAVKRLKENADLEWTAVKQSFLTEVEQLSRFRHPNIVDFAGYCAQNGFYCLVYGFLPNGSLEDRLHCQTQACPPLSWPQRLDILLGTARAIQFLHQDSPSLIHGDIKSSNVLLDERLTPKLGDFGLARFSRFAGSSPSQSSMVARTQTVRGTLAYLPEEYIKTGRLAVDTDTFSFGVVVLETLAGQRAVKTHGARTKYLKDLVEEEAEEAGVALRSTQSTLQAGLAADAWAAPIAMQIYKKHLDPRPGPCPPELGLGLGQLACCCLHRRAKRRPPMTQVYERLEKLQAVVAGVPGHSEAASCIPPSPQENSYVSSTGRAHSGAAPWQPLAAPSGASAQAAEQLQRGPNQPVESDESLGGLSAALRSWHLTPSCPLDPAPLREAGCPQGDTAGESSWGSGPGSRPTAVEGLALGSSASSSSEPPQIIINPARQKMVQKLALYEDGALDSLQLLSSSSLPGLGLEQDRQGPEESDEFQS

On IRAK4, `C=CC(=O)N1CC2(CC(c3nc(-c4ccc(NC(=O)c5cccc(-c6ccn[nH]6)n5)cc4)no3)C2)C1` [Compound 077] had an IC50 of more than 10000 nM.

Take `C=CC(=O)N1CCC[C@H](C(=O)Nc2ccc(Nc3nsc4ccc(-c5ccn[nH]5)nc34)cc2)C1` [Compound 025]: the half-maximal inhibitory concentration (IC50) at IRAK4 came out at 353 nM; on IRAK1, 2.22 nM.

Consider `C=CC(=O)N1CCC[C@H](c2nc(-c3ccc(NC(=O)c4cccc(-c5ccn[nH]5)n4)cn3)no2)C1` [Compound 061, (S)-N-(6-(5-(1-acryloylpiperidin-3-yl)-1,2,4-oxadiazol-3-yl)pyridin-3-yl)-6-(1H-pyrazol-5-yl)picolinamide], for which the IC50 was more than 10000 nM against IRAK4 and 84.3 nM against IRAK1.

For the compound `C=CC(=O)N1CC2CC1[C@@H](c1nc(-c3ccc(NC(=O)c4cccc(-c5[nH]ncc5C)n4)nc3)no1)C2` (stereo partly drawn) [Compound 010, N-(5-(5-((6S)-2-acryloyl-2-azabicyclo[2.2.1]heptan-6-yl)-1,2,4-oxadiazol-3-yl)pyridin-2-yl)-6-(4-methyl-1H-pyrazol-5-yl)picolinamide], the results for the IC50 at IRAK4 and against IRAK1 were more than 10000 nM and 5.11 nM, respectively.

Turning to `C=CC(=O)N1C[C@@H](c2nc(-c3ccc(NC(=O)c4cccc(-c5ccn[nH]5)n4)cc3)no2)C[C@@H](C(F)(F)F)C1` [Compound 078], the results for the IC50 against IRAK4 and at IRAK1 were more than 10000 nM and 521 nM, respectively.

For the compound `C=CC(=O)N1C[C@@H](c2nc(-c3ccc(NC(=O)c4cccc(-c5ccn[nH]5)n4)c(F)c3)no2)CC(F)(F)C1` [Compound 090, (S)-N-(4-(5-(1-acryloyl-5,5-difluoropiperidin-3-yl)-1,2,4-oxadiazol-3-yl)-2-fluorophenyl)-6-(1H-pyrazol-5-yl)picolinamide], the figures for the IC50 against IRAK4 and on IRAK1 were more than 10000 nM and 6.62 nM, respectively.

On to `C=CC(=O)N[C@@H]1CNC[C@H](c2nc(-c3ccc(NC(=O)c4cccc(-c5ccn[nH]5)n4)c(F)c3)no2)C1` [Compound 098, N-(4-(5-((3R,5S)-5-acrylamidopiperidin-3-yl)-1,2,4-oxadiazol-3-yl)-2-fluorophenyl)-6-(1H-pyrazol-5-yl)picolinamide], for which the IC50 was more than 10000 nM against IRAK4 and 45.9 nM on IRAK1.

Consider `C=CC(=O)N1CC(C(F)(F)F)C[C@H](c2nc(-c3ccc(NC(=O)c4cccc(-c5ccn[nH]5)n4)nc3)no2)C1` (stereo partly drawn) [Compound 009, N-(5-(5-((3S)-1-acryloyl-5-(trifluoromethyl)piperidin-3-yl)-1,2,4-oxadiazol-3-yl)pyridin-2-yl)-6-(1H-pyrazol-5-yl)picolinamide], for which the IC50 against IRAK4 is more than 10000 nM; against IRAK1, 3.98 nM.

Regarding `C=CC(=O)N1CC(c2nc(-c3ccc(NC(=O)c4cccc(-c5[nH]ncc5C)n4)c(F)c3)no2)CC(F)(F)C1` (stereo not shown) [Compound 093, N-(4-(5-(1-acryloyl-5,5-difluoropiperidin-3-yl)-1,2,4-oxadiazol-3-yl)-2-fluorophenyl)-6-(4-methyl-1H-pyrazol-5-yl)picolinamide], the IC50 against IRAK4 is more than 10000 nM; on IRAK1, 8.3 nM.

Regarding `C=CC(=O)N1CCC[C@H](C(=O)Nc2ccc(-c3ncc(-c4cccc(-c5ccn[nH]5)n4)o3)nc2)C1` [Compound 022], the concentration for half-maximal inhibition (IC50) at IRAK4 was determined as 376 nM; against IRAK1 it was 5.35 nM.

Regarding `C=CC(=O)N1CCC[C@H](C(=O)Nc2ccc(-c3ncc(-c4cccc(-c5ccn[nH]5)n4)s3)nc2)C1` [Compound 023], the IC50 was determined as 244 nM at IRAK4 and 6.07 nM on IRAK1.

For the compound `C=CC(=O)N1CCC[C@H](C(=O)Nc2ccc(-c3nnc(-c4cccc(-c5ccn[nH]5)n4)[nH]3)nc2)C1` [Compound 018], the IC50 on IRAK4 was found to be 125 nM; against IRAK1 it was 3.95 nM.

Turning to `C=CC(=O)N1CCC[C@H](c2nc(-c3ccc(NC(=O)c4cccc(-c5ccn[nH]5)n4)c(OC)c3)no2)C1` [Compound 084, (S)-N-(4-(5-(1-acryloylpiperidin-3-yl)-1,2,4-oxadiazol-3-yl)-2-methoxyphenyl)-6-(1H-pyrazol-5-yl)picolinamide], the concentration for half-maximal inhibition (IC50) was found to be 204 nM against IRAK4 and 1.67 nM at IRAK1.

`C=CC(=O)N1CC(c2nc(-c3ccc(NC(=O)c4cccc(-c5[nH]ncc5Cl)n4)nc3)no2)CC(F)(F)C1` (stereo not shown) [Compound 008, N-(5-(5-(1-acryloyl-5,5-difluoropiperidin-3-yl)-1,2,4-oxadiazol-3-yl)pyridin-2-yl)-6-(4-chloro-1H-pyrazol-5-yl)picolinamide]: the IC50 is more than 10000 nM against IRAK4 and 5.11 nM against IRAK1.

In the case of `C=CC(=O)N1CCC[C@H](c2nc(-c3ccc(NC(=O)c4cccc(-c5ccn[nH]5)n4)c(C(F)(F)F)c3)no2)C1` [Compound 080, (S)-N-(4-(5-(1-acryloylpiperidin-3-yl)-1,2,4-oxadiazol-3-yl)-2-(trifluoromethyl)phenyl)-6-(1H-pyrazol-5-yl)picolinamide], the 50% inhibitory concentration (IC50) against IRAK4 was 3620 nM; against IRAK1 it was 8.25 nM.

`C=CC(=O)N1CCC[C@H](c2nc(-c3ccc(NC(=O)c4cccc(-c5[nH]ncc5Cl)n4)c(F)c3)no2)C1` [Compound 089, (S)-N-(4-(5-(1-acryloylpiperidin-3-yl)-1,2,4-oxadiazol-3-yl)-2-fluorophenyl)-6-(4-chloro-1H-pyrazol-5-yl)picolinamide]: the IC50 at IRAK4 was more than 10000 nM; at IRAK1 it was 21.1 nM.

On to `C=CC(=O)N1CCC[C@H](C(=O)Nc2ccc(-c3ncc(-c4cccc(-c5ccn[nH]5)n4)[nH]3)nc2)C1` [Compound 024], for which the IC50 against IRAK4 worked out at 474 nM; against IRAK1 it was 6.54 nM.

For the compound `C=CC(=O)N1C[C@@H](c2nc(-c3ccc(NC(=O)c4cccc(-c5ccn[nH]5)n4)cc3)no2)C[C@H](C(F)(F)F)C1` [Compound 083], the IC50 on IRAK4 was more than 10000 nM; against IRAK1, 209 nM.

`C=CC(=O)N1C[C@@H](c2nc(-c3ccc(NC(=O)c4cccc(-c5ccn[nH]5)n4)nc3)no2)C[C@H](C(F)(F)F)C1` [Compound 064]: the half-maximal inhibitory concentration (IC50) against IRAK4 is more than 10000 nM; on IRAK1, 30.4 nM.

Turning to `C=CC(=O)N1CC(c2nc(-c3ccc(NC(=O)c4cccc(-c5ccn[nH]5)n4)nc3)no2)CC(F)(F)C1` (stereo not shown) [Compound 002, N-(5-(5-(1-acryloyl-5,5-difluoropiperidin-3-yl)-1,2,4-oxadiazol-3-yl)pyridin-2-yl)-6-(1H-pyrazol-5-yl)picolinamide], the figures for the IC50 at IRAK4 and against IRAK1 were more than 10000 nM and 6.42 nM, respectively.

Take `C=CC(=O)N1C[C@@H](c2nc(-c3ccc(NC(=O)c4cccc(-c5ccn[nH]5)n4)cc3)no2)CC(F)(F)C1` [Compound 082]: the concentration for half-maximal inhibition (IC50) against IRAK4 was more than 10000 nM; at IRAK1, 17.6 nM.

Take `C=CC(=O)N1CCC[C@H](C(=O)Nc2ccc(-c3nnc(-c4cccc(-c5ccn[nH]5)n4)o3)nc2)C1` [Compound 019]: the IC50 against IRAK4 was 331 nM; on IRAK1, 5 nM.

Regarding `C=CC(=O)N1CCC[C@H](c2nc(-c3ccc(NC(=O)c4cccc(-c5ccn[nH]5)n4)c(OC(F)(F)F)c3)no2)C1` [Compound 081, (S)-N-(4-(5-(1-acryloylpiperidin-3-yl)-1,2,4-oxadiazol-3-yl)-2-(trifluoromethoxy)phenyl)-6-(1H-pyrazol-5-yl)picolinamide], the IC50 on IRAK4 was determined as 794 nM; at IRAK1, 9 nM.

`C=CC(=O)N1CC2(CC(c3nc(-c4ccc(NC(=O)c5cccc(-c6ccn[nH]6)n5)cc4)no3)C2)C1` [Compound 091] displayed a concentration for half-maximal inhibition (IC50) against IRAK4 of 4970 nM.
